Experimental data as given in patent publication US20170304411A1, “TOPICAL FORMULATION FOR TREATING SKIN OR MUCOSAL INFECTIONS, PREPARATION METHOD AND USES THEREOF” (HPRD - HEALTH PRODUCTS RESEARCH AND DEVELOPMENT LDA, priority 2014, published 2017).

Tests used:
[1] = tested on: planktonic cells of different Candida species, including C. albicans; experiment: Direct fungistatic or fungicidal activity against planktonic cells; assay type: cell-based; conditions: previous studies by the applicant's team
Description: When bromelain is added, an increase of activity reduction is observed, dependent on the enzyme concentration (the addition of a 250 μg/mL bromelain solution leads to metabolic activity reductions near 80% for both strains). […] Thus, the increase in metabolic activity reduction shown for the combination of bromelain and clotrimazole is not due to a direct fungistatic activity of the enzyme, but to a degradation of the biofilm matrix. The degradation of this matrix allows for the penetration of clotrimazole in the biofilm favouring its antimicrobial action.

[2] = tested on: biofilms from C. albicans strains; conditions: clotrimazole alone, without bromelain
[3] = tested on: biofilms from C. albicans strains; experiment: Checkerboard bromelain/clotrimazole, metabolic activity of biofilms (XTT reduction assay); assay type: cell-based; conditions: increasing concentrations of clotrimazole alone; tested C. albicans strains
Description: Following the washing step of microplates, the number of metabolically active cells available to metabolize XTT is reduced, leading to the overall reduction on metabolic activity.

[4] = after application in the eye; cited from earlier work
[5] = applied with no dilution on skin and mucosa as occlusive patch; cited from earlier work

## bromelain
[1]
  direct fungistatic or fungicidal activity: does not exhibit direct fungistatic or fungicidal activity

## Clc1ccccc1C(c1ccccc1)(c1ccccc1)n1ccnc1 [clotrimazole]
[2]
  reduction of biofilm biomass: limited
[3]
  reduction of metabolic activity: ≤ 60%

## CC(=O)OCC(COC(C)=O)OC(C)=O [triacetin]
[4]
  ocular irritation: induces an ocular irritation it does not cause harm
[5]
  irritation potential: low irritation potential
